# Measured values taken from article PMC11994961, “In Vivo pharmacokinetic interactions of ribociclib with rivaroxaban and apixaban in rats: implications for increased drug exposure and dose adjustments” (Frontiers in Pharmacology, 2025).
# “Also recorded” adds a separate entry of the source. Like-named read-outs stand apart in the source and are kept apart here.
# Legend:
# [1] = test system: Abcb1a (P-gp) mRNA in the intestines; assay: qRT-PCR mRNA expression in rat intestine after ribociclib; format: in vivo; settings: rats, ribociclib continuously for 8 days
# Excerpt: (§1) qRT-PCR analysis was used to determine the mRNA levels of Cyp3a1(CYP3A4) in the liver and Abcb1a (P-gp), Cyp3a1(CYP3A4), Abcg2(BCRP) in the intestines. Total RNA was extracted from frozen liver and intestine samples using the TRNzol Universal reagent, following the manufacturer’s instructions. The Bio Tek Epoch (Bio Tek Instruments, Inc., Winooski, VT, United States) was used to quantify the purity and concentration of the total RNA, based on the ratio of the absorbance at 260 and 280 nm. The RNA samples, each containing 1 µg of material, were converted to complementary DNA (cDNA) using the FastKing RT Kit. The real-time PCR assays were performed using a two-step amplification protocol on the SLAN-96S Real-Time PCR system (Shanghai Hongshi Medical Technology Co., Ltd., Shanghai, China). […] was employed as an internal control, and the PCR cycling criteria were as follows: 95°C for 15 min, followed by 40 cycles of 95°C for 10 s and 60°C for 32 s.
# [2] = test system: Abcg2(BCRP) mRNA in the intestines; assay: as above; format: in vivo; settings: rats, ribociclib continuously for 8 days
# Excerpt: as §1
# [3] = test system: Cyp3a1(CYP3A4) mRNA in the intestines; assay: as above; format: in vivo; settings: rats, ribociclib continuously for 8 days
# Excerpt: as §1
# [4] = Pharmacokinetic study of ribociclib in rats, alone and after rivaroxaban or apixaban (UPLC-MS/MS plasma levels); format: in vivo, Sprague-Dawley rats; settings: for Cmax / AUC(0-inf) / AUC(0-t) / Tmax / half-life / CL/F / MRT inf / MRT last / Vd/F: Sprague-Dawley, rat, plasma, 60 mg/kg; for CL/F: read-out: CLz/F (converted); for MRT inf: read-out: MRT0- ∞; for MRT last: read-out: MRT0-t; for Vd/F: read-out: Vz/F
# Experimental: Experimental animals were randomly divided into nine groups (n = 6, Table 1). Ribociclib was suspended in methylcellulose (MC), rivaroxaban was prepared in hydroxypropyl methylcellulose (HPMC), and apixaban was suspended in 5% DMSO in water. To achieve steady-state blood concentrations, a drug typically requires five to seven half-lives. Based on this principle, ribociclib was administered orally for eight consecutive days, while rivaroxaban and apixaban were administered orally for five consecutive days to ensure steady-state concentrations were reached before further analysis. Approximately 0.1 mL of blood was collected into heparinized tubes via the orbitalat specified time points before and after the final drug administration. […] Blood samples were centrifuged at 3,500 rpm for 10 min, and the supernatant was collected and stored at −80°C until processing for UPLC-MS/MS. Apixaban and rivaroxaban concentrations in plasma samples were determined using our previously established UPLC-MS/MS method ([Wang et al., 2023]). Ribociclib concentrations were quantified using an LC-30A UPLC system (Shimadzu, Kyoto, Japan) coupled with a Sciex Triple Quad 5500 tandem quadrupole mass spectrometer (AB Sciex, Framingham, MA, United States) equipped with an electrospray ionization interface. Chromatographic separation was performed using a Welch Boltimate column (2.1 mm × 100 mm, 2.7 μm) maintained at 40°C. The mobile phase was composed of water containing 0.1% formic acid (phase A) and acetonitrile (phase B). The flow rate was held constant at 0.3 mL/min. […] The injection volume was 1 μL. The mass spectrometer operated in positive ion mode and multiple reaction monitoring (MRM) mode for detection and quantification. The monitored transitions of precursors to product ions were as follows: 441.3→332.1 for ribociclib-d6 and 435.3.→322.1 for ribociclib (Figure 1). The mass spectrometer conditions, including delustering potential (DP) and collision energy (CE) of the compounds, are shown in Table 2. Other parameters of the mass spectrometer were as follows: ion source gas 160.0 psi; ion source gas 2,50.0 psi; curtain gas, 25.0 psi. The source temperature was 500°C and the ion spray voltage was 5,500 V. A 50 µL plasma sample was mixed with 5 µL of the IS working solution, followed by the addition of 150 µL of acetonitrile. The mixture was vortexed for 2 min and then centrifuged at 12,000 rpm for 10 min. Next, 70 µL of the supernatant was collected and mixed with 70 µL of 50% (v/v) of acetonitrile in water. The mixture was vortexed for 1 min, and then 1 µL was injected into the UPLC-MS/MS system for analysis. […] The area under the concentration–time curve (AUC), maximum plasma concentration (Cmax), time to maximum plasma concentration (Tmax), the time required to eliminate half of the plasma drug concentration (t1/2), clearance of drug plasma volume per unit time (CLz/F), apparent volume distribution (Vz/F), mean residence time (MRT) and the absorption rate constant (Ka) are all expressed as mean ± standard deviation (SD). SPSS 25.0 statistical software (SPSS Inc., Chicago, IL, United States) was applied to statistically analyze the mainpharmacokinetic parameters. Shapiro-Wilk test was used to assess whether the data were normally distributed, t test was used for parameters conforming to the normal distribution, and Mann-Whitney U test was used for parameters not conforming to the normal distribution. Statistical comparisons were conducted using a analysis of variance, t-test or nonparametric rank-sum test depending on the data type.
# [5] = po, rats, RIBO 60 mg/kg after API 0.5 mg/kg for 5 days
# [6] = po, rats, RIBO 60 mg/kg after RIVA 2 mg/kg for 5 days
# [7] = po, rats, oral RIBO 60 mg/kg alone
structure (smiles),measurement,setting,value
"CN(C)C(=O)c1cc2cnc(Nc3ccc(N4CCNCC4)cn3)nc2n1C1CCCC1 [RIBO, ribociclib]",mRNA expression of Abcb1a in the intestine,[1],no significant changes
same,inhibition rate of intestinal Abcg2 mRNA expression,[2],45.0%
same,inhibition rate of intestinal Cyp3a1 mRNA expression,[3],82.6%
same,Cmax,"[4]; oral, rats administered 60 mg/kg",~1500 ng/mL
same,AUC(0-inf),[4]; [5],25200 ng·h/mL
same,AUC(0-t),[4]; [5],24500 ng·h/mL
same,Cmax,[4]; [5],2080 ± 400 ng/mL
same,Tmax,[4]; [5],4.33 ± 1.37 h
same,half-life,[4]; [5],8.25 ± 2.87 h
same,CL/F,[4]; [5],40.2 mL/min/kg
same,MRT inf,[4]; [5],11 ± 2.83 h
same,MRT last,[4]; [5],9.71 ± 1.15 h
same,Vd/F,[4]; [5],28.3 ± 8.33 L/kg
same,AUC(0-inf),[4]; [6],21500 ng·h/mL
same,AUC(0-t),[4]; [6],21400 ng·h/mL
same,Cmax,[4]; [6],1600 ng/mL
same,Tmax,[4]; [6],4.33 ± 0.52 h
same,half-life,[4]; [6],6.13 ± 1.41 h
same,CL/F,[4]; [6],47.2 mL/min/kg
same,MRT inf,[4]; [6],10.1 ± 2.16 h
same,MRT last,[4]; [6],9.77 ± 1.74 h
same,Vd/F,[4]; [6],24.7 ± 4.85 L/kg
same,AUC(0-inf),[4]; [7],20800 ng·h/mL
same,AUC(0-t),[4]; [7],20300 ng·h/mL
same,Cmax,[4]; [7],1620 ng/mL
same,Tmax,[4]; [7],2.4 ± 0.89 h
same,half-life,[4]; [7],7.87 ± 4.17 h
same,CL/F,[4]; [7],49.3 mL/min/kg
same,MRT inf,[4]; [7],11.8 ± 4.35 h
same,MRT last,[4]; [7],10.1 ± 1.79 h
same,Vd/F,[4]; [7],35.5 ± 26.3 L/kg
same,changes in the pharmacokinetic parameters,"[4]; rats, RIBO 60 mg/kg after multiple doses of apixaban vs alone",no significant changes; also recorded: did not alter
same,changes in the pharmacokinetic parameters,"[4]; rats, RIBO 60 mg/kg after multiple doses of rivaroxaban vs alone",no significant changes; also recorded: did not alter
same,slight increase in Cmax,"[4]; rats, RIBO 60 mg/kg, apixaban group vs alone",not statistically significant
